The molecules below were run against T1, USP28 (His-tagged USP28-FL-mammalian) (Homo sapiens, UniProt Q96RU2) (assay: Ubiquitin-Rhodamine 110 Assay for USP28 Activity, Example A-1(a)). Details: biochemical IC50 range, Ubiquitin-Rhodamine 110 assay, read-out: USP28 A-1(a).
T1 construct: Expression of USP28 (1-1077)-TEV-6*His (pTT5 vector) was carried out in Expi293f cells; made in house; host or cells: Expi293F cells (pTT5 vector)
T1 sequence (Q96RU2 1-1077): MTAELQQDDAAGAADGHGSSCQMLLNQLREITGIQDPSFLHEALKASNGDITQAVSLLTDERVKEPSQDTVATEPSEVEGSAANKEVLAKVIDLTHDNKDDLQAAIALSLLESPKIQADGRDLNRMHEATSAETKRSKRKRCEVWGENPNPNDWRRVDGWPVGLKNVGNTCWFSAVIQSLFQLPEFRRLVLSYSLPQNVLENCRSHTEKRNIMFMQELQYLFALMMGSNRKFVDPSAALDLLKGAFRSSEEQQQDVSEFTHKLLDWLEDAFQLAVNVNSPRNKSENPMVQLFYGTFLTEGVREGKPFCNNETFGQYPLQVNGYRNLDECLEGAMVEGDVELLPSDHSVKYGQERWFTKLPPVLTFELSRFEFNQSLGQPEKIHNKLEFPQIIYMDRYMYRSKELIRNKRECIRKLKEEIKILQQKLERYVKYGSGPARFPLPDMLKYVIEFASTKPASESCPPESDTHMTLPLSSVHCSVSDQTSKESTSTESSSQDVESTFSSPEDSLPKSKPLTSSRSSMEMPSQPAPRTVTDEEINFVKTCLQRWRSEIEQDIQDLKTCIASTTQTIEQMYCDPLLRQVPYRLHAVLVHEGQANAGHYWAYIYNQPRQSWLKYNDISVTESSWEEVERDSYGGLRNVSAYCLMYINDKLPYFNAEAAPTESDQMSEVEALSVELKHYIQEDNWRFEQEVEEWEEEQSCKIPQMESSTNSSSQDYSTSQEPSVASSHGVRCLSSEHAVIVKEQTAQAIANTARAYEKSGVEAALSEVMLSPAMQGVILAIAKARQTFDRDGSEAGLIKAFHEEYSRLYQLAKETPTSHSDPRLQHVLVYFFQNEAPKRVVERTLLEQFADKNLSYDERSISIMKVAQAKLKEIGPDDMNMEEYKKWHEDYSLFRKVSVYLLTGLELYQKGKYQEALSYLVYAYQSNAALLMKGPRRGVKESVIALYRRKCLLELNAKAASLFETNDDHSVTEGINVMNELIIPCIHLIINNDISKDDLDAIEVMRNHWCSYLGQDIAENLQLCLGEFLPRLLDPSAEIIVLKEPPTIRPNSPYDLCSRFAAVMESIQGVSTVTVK
Format: biochemical
Summary of the method: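 Full-length His-tagged human USP28 (1-1077), expressed in Expi293F cells, was used at […] with 25 nM Ub-Rh110 (<<Km) in 20 mM Tris pH 8.0, 3 mM BME, 0.03% BGG and 0.01% Triton X-100. Compounds (25 μM-1.3 nM, 10-point) were preincubated with enzyme for 30 min, and the reaction ran 45 min at room temperature before a citric acid stop. Fluorescence was read at 485/535 nm, and IC50 came from 4-parameter fits of percent inhibition.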

**Q.** With Cc1ccc2c(N)c(C(=O)N[C@H]3COc4nc(N5C[C@H](N)C6(C5)OCCO6)ccc4C3)sc2n1 [Example 543, 3-amino-N-[(3R)-7-[(9S)-9-amino-1,4-dioxa-7-azaspiro[4.4]nonan-7-yl]-2H,3H,4H-pyrano[2,3-b]pyridin-3-yl]-6-methylthieno[2,3-b]pyridine-2-carboxamide] as the molecule, how does the IC50 read?
**A.** Its IC50 is 200 to 2000 nM.

**Q.** Cc1ccc2c(N)c(C(=O)N[C@H]3COc4nc(N5C[C@@H](N)C6(C5)OCCO6)ccc4C3)sc2n1 [Example 544, 3-amino-N-[(3R)-7-[(9R)-9-amino-1,4-dioxa-7-azaspiro[4.4]nonan-7-yl]-2H,3H,4H-pyrano[2,3-b]pyridin-3-yl]-6-methylthieno[2,3-b]pyridine-2-carboxamide] was tested. Which IC50 did it give?
**A.** Its IC50 is 200 to 2000 nM.

**Q.** Cc1ccc2c(N)c(C(=O)N[C@H]3COc4cc(N5C[C@H](N)[C@@]6(CCCCO6)C5)ccc4C3)sc2n1 [Example 611-1, 3-amino-N-[(3R)-7-[(4S,5R)-4-amino-6-oxa-2-azaspiro[4.5]decan-2-yl]-3,4-dihydro-2H-1-benzopyran-3-yl]-6-methylthieno[2,3-b]pyridine-2-carboxamide] was tested. Which IC50 did it give?
**A.** The IC50 was 1 to 50 nM.

**Q.** How did the IC50 turn out when Cc1ccc2c(N)c(C(=O)N[C@H]3COc4cc(N5C[C@@H](N)[C@]6(CCCCO6)C5)ccc4C3)sc2n1 [Example 611-2, 3-amino-N-[(3R)-7-[(4R,5S)-4-amino-6-oxa-2-azaspiro[4.5]decan-2-yl]-3,4-dihydro-2H-1-benzopyran-3-yl]-6-methylthieno[2,3-b]pyridine-2-carboxamide] was run?
**A.** Its IC50 is 1 to 50 nM.

**Q.** With Cc1ccc2c(N)c(C(=O)N[C@H]3COc4cc(N5C[C@H](N)[C@@]6(C5)OCC[C@@H]6C)ccc4C3)sc2n1 [Example 612-1, 3-amino-N-[(3R)-7-[(4S,5R,9S)-9-amino-4-methyl-1-oxa-7-azaspiro[4.4]nonan-7-yl]-3,4-dihydro-2H-1-benzopyran-3-yl]-6-methylthieno[2,3-b]pyridine-2-carboxamide] as the molecule, how does the IC50 read?
**A.** Its IC50 is 1 to 50 nM.

**Q.** How did the IC50 turn out when Cc1ccc2c(N)c(C(=O)N[C@H]3COc4cc(N5C[C@H](N)[C@@]6(C5)OCC[C@H]6C)ccc4C3)sc2n1 [Example 612-2, 3-amino-N-[(3R)-7-[(4R,5R,9S)-9-amino-4-methyl-1-oxa-7-azaspiro[4.4]nonan-7-yl]-3,4-dihydro-2H-1-benzopyran-3-yl]-6-methylthieno[2,3-b]pyridine-2-carboxamide] was run?
**A.** Its IC50 is 1 to 50 nM.

**Q.** How did the IC50 turn out when Cc1ccc2c(N)c(C(=O)N[C@H]3COc4cc(N5C[C@H](N)[C@]6(CCCCO6)C5)ccc4C3)sc2n1 [Example 652, 3-amino-N-[(3R)-7-[(4S,5S)-4-amino-6-oxa-2-azaspiro[4.5]decan-2-yl]-3,4-dihydro-2H-1-benzopyran-3-yl]-6-methylthieno[2,3-b]pyridine-2-carboxamide] was run?
**A.** The IC50 was 1 to 50 nM.

**Q.** With Cc1ccc2c(N)c(C(=O)N[C@H]3COc4cc(N5C[C@@H](N)[C@@]6(CCCCO6)C5)ccc4C3)sc2n1 [Example 653, 3-amino-N-[(3R)-7-[(4R,5R)-4-amino-6-oxa-2-azaspiro[4.5]decan-2-yl]-3,4-dihydro-2H-1-benzopyran-3-yl]-6-methylthieno[2,3-b]pyridine-2-carboxamide] as the molecule, how does the IC50 read?
**A.** The IC50 was 1 to 50 nM.

**Q.** Cc1ccc2c(N)c(C(=O)NC3COc4cc(N5CC6NCC(F)(F)C6C5)ccc4C3)sc2n1 [Example 654, N-[(3R)-7-[(3aS,6aS)-3,3-difluorooctahydropyrrolo[3,4-b]pyrrol-5-yll-3,4-dihydro-2H-1-benzopyran-3-yl]-3-amino-6-methylthieno[2,3-b]pyridine-2-carboxamide] was tested. Which IC50 did it give?
**A.** Its IC50 is 1 to 50 nM.

**Q.** How did the IC50 turn out when Cc1ccc2c(N)c(C(=O)N[C@H]3COc4cc(N5CC6[C@H](C5)NCC6(F)F)ccc4C3)sc2n1 (stereo partly drawn) [Example 655, N-[(3R)-7-[(6aR)-3,3-difluorooctahydropyrrolo[3,4-b]pyrrol-5-yl]-3,4-dihydro-2H-1-benzopyran-3-yl]-3-amino-6-methylthieno[2,3-b]pyridine-2-carboxamide] was run?
**A.** The IC50 was 1 to 50 nM.

**Q.** For Cc1ccc2c(N)c(C(=O)NC3COc4cc(N5CC6CCNCC65)cc(F)c4C3)sc2n1 [Example 664, 3-amino-N-[(3R)-7-[(1S,6R)-3,8-diazabicyclo[4.2.0]octan-8-yl]-5-fluoro-3,4-dihydro-2H-1-benzopyran-3-yl]-6-mcthylthicno[2,3-b]pyridinc-2-carboxamide], which IC50 is on record?
**A.** Its IC50 is 1 to 50 nM.

**Q.** For CO[C@]12CCN[C@H]1CN(c1ccc3c(c1)OC[C@H](NC(=O)c1sc4nc(C)ccc4c1N)C3)C2 [Example 666, N-[(3R)-7-[(3aS,6aS)-3a-methoxyoctahydropyrrolo[2,3-c]pyrrol-5-yl}-3,4-dihydro-2H-1-benzopyran-3-yl]-3-amino-6-methylthicno[2,3-b]pyridine-2-carboxamide], which IC50 is on record?
**A.** Its IC50 is 1 to 50 nM.

**Q.** For CO[C@@]12CCN[C@@H]1CN(c1ccc3c(c1)OC[C@H](NC(=O)c1sc4nc(C)ccc4c1N)C3)C2 [Example 667, N-[(3R)-7-[(3aR,6aR)-3a-methoxyoctahydropyrrolo[2,3-c]pyrrol-5-yl]-3,4-dihydro-2H-1-benzopyran-3-yl]-3-amino-6-methylthieno[2,3-b]pyridine-2-carboxamide], which IC50 is on record?
**A.** Its IC50 is 1 to 50 nM.

**Q.** CCNC1CN(c2ccc3c(c2)OCC(NC(=O)c2sc4nc(C)ccc4c2N)C3)CC1COC [Example 668, 3-amino-N-[(3R)-7-[(3R,4S)-3-(ethylamino)-4-(mcthoxymcthyl)pyrrolidin-1-yl]-3,4-dihydro-2H-1-benzopyran-3-yl]-6-methylthicno[2,3-b]pyridinc-2-carboxamide] was tested. Which IC50 did it give?
**A.** The IC50 was 1 to 50 nM.

**Q.** For Cc1ccc2c(N)c(C(=O)NC3COc4cc(N5CC(N)C(COC(F)(F)F)C5)ccc4C3)sc2n1 [Example 672, 3-amino-N-[(3R)-7-[(3R,4R)-3-amino-4-[(trifluoromethoxy)methyl]pyrrolidin-1-yl]-3,4-dihydro-2H-1-benzopyran-3-yl]-6-methylthicno[2,3-b]pyridine-2-carboxamide], which IC50 is on record?
**A.** The IC50 was 50 to 200 nM.

**Q.** Cc1ccc2c(N)c(C(=O)N[C@H]3COc4cc(N5C[C@H](COC(F)(F)F)[C@H](N)C5)ccc4C3)sc2n1 [Example 673, 3-amino-N-[(3R)-7-[(3S,4S)-3-amino-4-[(trifluoromethoxy)methyl]pyrrolidin-1-yl]-3,4-dihydro-2H-1-benzopyran-3-yl]-6-methylthieno[2,3-b]pyridine-2-carboxamide] was tested. Which IC50 did it give?
**A.** The IC50 was 1 to 50 nM.

**Q.** CNc1ncc(C(=O)N[C@H]2COc3cc(N4CCNCC4)ccc3C2)c2[nH]ccc12 [Example 674, 4-(methylamino)-N-[(3R)-7-(piperazin-1-yl)-3,4-dihydro-2H-1-benzopyran-3-yl]-1Hpyrrolo[3,2-c]pyridine-7-carboxamide] was tested. Which IC50 did it give?
**A.** The IC50 was 200 to 2000 nM.

**Q.** For CNc1ncc(C(=O)N[C@H]2COc3cc(N4CCNCC4)ccc3C2)c2[nH]cc(Cl)c12 [Example 675, 3-chloro-4-(methylamino)-N-[(3R)-7-(piperazin-1-yl)-3,4-dihydro-2H-1-benzopyran-3-yl]-1H-pyrrolo[3,2-c]pyridine-7-carboxamide], which IC50 is on record?
**A.** Its IC50 is 200 to 2000 nM.

**Q.** Which IC50 does the source give for CCOc1ncc(C(=O)N[C@H]2COc3cc(N4CCNCC4)ccc3C2)c2[nH]ccc12 [Example 676, 4-ethoxy-N-[(3R)-7-(piperazin-1-yl)-3,4-dihydro-2H-1-benzopyran-3-yl]-1Hpyrrolo[3,2-c]pyridine-7-carboxamide] here?
**A.** Its IC50 is 200 to 2000 nM.

**Q.** CNc1ncc(C(=O)N[C@H]2COc3cc(N4CCNCC4)ccc3C2)c2c1CCCN2 [Example 677, 5-(methylamino)-N-[(3R)-7-(piperazin-1-yl)-3,4-dihydro-2H-1-benzopyran-3-yl]-1,2,3,4-tetrahydro-1,6-naphthyridine-8-carboxamide] was tested. Which IC50 did it give?
**A.** The IC50 was 200 to 2000 nM.
